ChEMBL document CHEMBL1157243, “The sapogenin atroviolacegenin and its diglycoside atroviolaceoside from Allium atroviolaceum” (2006)
Active and inactive are the calls of the source. The rule behind the calls is not given here.

What follows are compounds tested on Ileum (assay: Antispasmodic activity in guinea pig ileum assessed as inhibition of histamine-induced tissue contraction at 10^-8 to 10^-5 M after 30 mins). Settings: not given.
Type: functional, Cavia porcellus

Compound | inhibition (INH)
C[C@H]1[C@H]2[C@H](C[C@H]3[C@@H]4C[C@@H](O)[C@H]5C[C@@H](O[C@@H]6O[C@H](CO)[C@H](O[C@@H]7O[C@H](CO)[C@@H](O)[C@H](O)[C@H]7O)[C@H](O)[C@H]6O)[C@H](O)C[C@]5(C)[C@H]4CC[C@]23C)O[C@]12CC[C@@H](CO)CO2 [ATROVIOLACEOSIDE] | 0%
C[C@H](CC[C@]1(O)O[C@H]2C[C@H]3[C@@H]4CC=C5C[C@@H](O)C[C@@H](O[C@@H]6OC[C@@H](O)[C@H](O)[C@H]6O)[C@]5(C)[C@H]4CC[C@]3(C)[C@H]2[C@@H]1C)CO[C@@H]1O[C@H](C)[C@@H](O)[C@H](O)[C@@H]1O [TROPEOSIDE B2] | 50%
C[C@H](CC[C@@]1(O)O[C@H]2C[C@H]3[C@@H]4CC=C5C[C@@H](O)C[C@@H](O[C@@H]6OC[C@@H](O)[C@H](O)[C@H]6O)[C@]5(C)[C@H]4CC[C@]3(C)[C@H]2[C@@H]1C)CO[C@@H]1O[C@H](C)[C@@H](O)[C@H](O)[C@@H]1O [TROPEOSIDE B1] | 50%
C[C@H](CC[C@]1(O)O[C@H]2C[C@H]3[C@@H]4CC=C5C[C@@H](O)C[C@@H](O[C@@H]6O[C@H](CO)[C@H](O)[C@H](O)[C@H]6O)[C@]5(C)[C@H]4CC[C@]3(C)[C@H]2[C@@H]1C)CO[C@@H]1O[C@H](C)[C@@H](O)[C@H](O)[C@@H]1O [TROPEOSIDE A2] | 50%
C[C@H](CC[C@@]1(O)O[C@H]2C[C@H]3[C@@H]4CC=C5C[C@@H](O)C[C@@H](O[C@@H]6O[C@H](CO)[C@H](O)[C@H](O)[C@H]6O)[C@]5(C)[C@H]4CC[C@]3(C)[C@H]2[C@@H]1C)CO[C@@H]1O[C@H](C)[C@@H](O)[C@H](O)[C@@H]1O [TROPEOSIDE A1] | 50%

Same assay, conditions: Cavia porcellus

Compound | Activity
C[C@H]1[C@H]2[C@H](C[C@H]3[C@@H]4C[C@@H](O)[C@H]5C[C@@H](O)[C@H](O)C[C@]5(C)[C@H]4CC[C@]23C)O[C@]12CCC(CO)CO2 (single isomer, unassigned) | inactive
